The values below come from publication PMC7076710, “Synthesis, Identification, and Structure–Activity Relationship Analysis of GATA4 and NKX2-5 Protein–Protein Interaction Modulators” (Journal of Medicinal Chemistry, 2019).

What all share (type): cell-based
The target of series [1] is T1, GATA4–NKX2-5 transcriptional synergy (Mus musculus, UniProt P42582+Q08369).
T1 construct: expressed in transfected cells; host or cells: COS-1
Kind of series: GATA4–NKX2-5 transcriptional synergy luciferase reporter assay (3xNKE reporter, COS-1 cells). For orientation: A reporter such as luciferase makes a cellular process visible.

In series [2] the target is T2, NKX2-5 transcriptional activity (Mus musculus, UniProt P42582).
T2 construct: expressed in transfected cells; host or cells: COS-1
The experiment in a line: NKX2-5 luciferase reporter assay (3xNKE reporter, COS-1 cells). Conditions: for activity at 3 µM: read-out: NKX.3µM; for activity at 10 µM: read-out: NKX.10µM. The protocol:
(§1) To screen compounds for the GATA4–NKX2-5 interaction, we have developed a luciferase reporter assay based on their property to activate gene transcription synergistically through the NKX2-5 binding site on DNA.[28] In this assay, we transfected mammalian COS-1 cells with protein expression vectors for GATA4 and NKX2-5 proteins together with artificial luciferase reporter vector containing three high affinity binding sites for NKX2-5 (NKE). […] All 257 compounds were tested in two concentrations, 3 and 10 μM. Compounds either inhibited, enhanced, or had no effect on the GATA4–NKX2-5 transcriptional synergy. To investigate the selectivity of the active compounds, we tested their effects on NKX2-5 transcriptional activity by using the same luciferase reporter vector as in transcriptional synergy assay with three NKE sites (Figure 3B). Furthermore, we used GATA luciferase reporter assay to examine if compounds have an effect on GATA4 transcriptional activity. In this assay, we cotransfected the cells with a GATA4 protein expression vector and a reporter vector with tandem GATA4 binding sites (Figure 3C). Previously we have reported that compound 1 inhibited the GATA4–NKX2-5 transcriptional synergy at micromolar concentrations (IC50 = 3 μM).[29]
(§2) The plasmids expressing mouse GATA4 protein, pMT2-GATA4, and empty pMT2 were gifts from D. B. Wilson (Department of Pediatrics, St. Louis Children’s Hospital, St. Louis, MO).[44] The plasmids expressing mouse NKX2-5 protein, pMT2-NKX2-5, have been described earlier.[28] The luciferase reporter plasmid used in GATA4–NKX2-5 transcriptional synergy assay and NKX transcriptional assay, pGL3-3xHA, contains three high affinity binding sites for NKX2-5.[28] The luciferase reporter plasmid used in GATA transcriptional assay, NP-112, contains tandem GATA-sites and minimal promoter of rat brain natriuretic peptide (BNP) gene.[45] The pGL3-BNP luciferase reporter containing −534/+4 bp rat BNP proximal promoter described previously was used in hypertrophy assay.[46]
(§3) The primary screening assay of compounds’ effect on GATA4–NKX2-5 transcriptional synergy and COS-1 cell culturing has been described earlier.[33] […] (Kinnunen et al., unpublished observation). Briefly, COS-1 cells were seeded at 14 000 cells/well in Isoplate-96 microplates (PerkinElmer, Turku, Finland) and grown overnight. The cells were transfected with the luciferase reporter plasmid pGL3-3xHA 100 ng/well and equal amounts of expression plasmids pMT2-GATA4 and pMT2-NKX2-5 total 50 ng/well. To verify the synergistic effect, the cells were transfected with pMT2-GATA4 or pMT2-NKX2-5 25 ng/well, and the total DNA concentration was adjusted to 50 ng/well with empty pMT2 plasmid. In NKX2-5 and GATA4 luciferase reporter assays, the cells were transfected with reporter plasmid pGL3-3xHA or NP-112 (100 ng/well) and expression plasmid pMT2-NKX2-5 or pMT2-GATA4 (25 ng/well). The ratio of DNA/transfection reagent (Fugene 6, Promega) was 1:3 in all assays. The transfections were performed in serum and antibiotics free media for 6 h. The cells were treated with compounds or vehicle (0.1% DMSO) for 24 h, and the luminescence was measured using neolite Reporter Gene Assay System (PerkinElmer, Turku, Finland) and Victor2 plate reader (PerkinElmer, Turku, Finland).
(§4) Raw luciferase data were analyzed in Excel, and clear outliers were removed from triplicates by using the Grubb’s test. Data analysis was performed using R.[49] The luciferase data were first normalized on the basis of the combined mean value of controls. For data visualization and creation of figures, the following R packages were used: ggplot2, cowplot, RColorBrewer, and pheatmap. The heatmaps of the toxicity data were produced with GraphPad Prism 7.00 (GraphPad Software, La Jolla, CA). Statistical significance of luciferase reporter assay data was evaluated by randomized block analysis of variance followed by Dunnett’s post hoc test. […]

The target in series [3] is T3, GATA4 transcriptional activity (Mus musculus, UniProt Q08369).
T3 construct: expressed in transfected cells; host or cells: COS-1
The experiment in a line: GATA4 luciferase reporter assay (tandem GATA-site reporter, COS-1 cells). The procedure:
as §1, §2, §3, §4

Series [4] has as its system COS-1 cells. The experiment in a line: LDH assay (necrosis). The text has this:
(§5) To investigate the toxicity as a potential cause of decreased or increased activity in luciferase reporter gene assays, we tested a set of 40 active compounds in the COS-1 cell line used for the luciferase assays. Concentration-dependent toxic effects were investigated using the lactate dehydrogenase (LDH) assay to detect necrosis and the 3-(4,5-dimethylthiazol-2-yl)-2,5-diphenyltetrazolium bromide (MTT) assay as a measure of cell viability. […] For the data analysis, compounds were classified as toxic (Figures 5 and 7) if they induced a >10% decrease in cell viability in the MTT assay at the concentration of 10 μM. The most toxic compounds (35a, 35d, 54, 58, and 63–65) in the MTT assay all contained a phenyl substituent in the southern part ring, while the ortho-nitrophenyl-derivative 39g and the phenyl-substituted thiophene 47t were nontoxic. Higher flexibility in the central parts of the ethers (35a, 35d) and N-acylated amines (58, 64) might contribute to their toxicity, because less rigid compounds are more likely to have affinity to various biological targets. Such interactions can cause toxicity. To confirm and validate the results from MTT assays, we tested three nontoxic (2, 47s, and 72) and three toxic (1, 35a, and 58) compounds in a cell viability assay measuring intracellular ATP content.
(§6) Figure 5 Effects of selected compounds on COS-1 cell viability. (A) Compound-induced necrosis was quantified with the LDH assay after a 24-h compound exposure. The data are presented as cytotoxicity percentage (% of maximal LDH release). (B) Cell viability was analyzed with the MTT assay after a 24-h compound exposure. (A,B) The data are means from 2–3 independent experiments with 3 replicate wells in each and are presented as % of control (vehicle-treated cells). The compounds have been grouped on the basis of the structure of the central part: a, amide; b, ether; c, N-acylated amine; d, amine; and e, imine. (C) The effects of selected compounds on cell viability as determined by ATP content after a 24-h compound exposure. The data are mean + SEM from three independent experiments and are presented as % of vehicle-treated cells.
(§7) For toxicity screening, COS-1 cells were cultured in DMEM (Sigma-Aldrich, Steinheim, Germany) supplemented with 10% fetal bovine serum, 100 U/mL penicillin, and 100 μg/mL streptomycin (all from Gibco, Thermo Scientific) at 37 °C with 5% CO2. The cells were plated on 96-well plates at 10 000 cells/well and exposed to test compounds at a concentration range of 1–30 μM on the following day. After a 24-h compound treatment, lactate dehydrogenase (LDH) and 3-(4,5-dimethylthiazol-2-yl)-2,5-diphenyltetrazolium bromide (MTT) assays were carried out as described previously.[48] Briefly, LDH activity was determined from 50 μL samples of cell culture medium, to which 50 μL of substrate solution [1.3 mM β-nicotinamide-adenine dinucleotide, 660 μM iodonitrotetrazolium, 54 mM L(+)-lactic acid, and 280 μM phenazine methosulfate in 0.2 M Tris-HCl, pH 8.2, all from Sigma-Aldrich] was added, and the plate was incubated for 30 min at room temperature. The reaction was stopped with acetic acid (final concentration 333 mM), and absorbance was measured at 490 nm. The absorbance values of the samples were normalized to maximal LDH release and spontaneous LDH release determined on the same plate. Mitochondrial metabolic activity was quantified by incubating the cells with 0.5 mg/mL MTT (from Sigma-Aldrich) for 2 h at 37 °C with 5% CO2, whereafter culture medium was removed and formazan crystals were dissolved in DMSO. The absorbance was measured at 550 nm, and absorbance at 650 nm was subtracted as background.

Series [5] relates to COS-1 cells. Kind of series: MTT assay (cell viability).
From the text: as §5, §6, §7
A general note: Tetrazolium assays rely on reduction of a dye to a coloured formazan, in cell work by metabolically active cells.

Where [6] appears, read: COS-1, 3 µM, luciferase reporter activity, % of control.
The mark [7] stands for this setting: COS-1, 10 µM, luciferase reporter activity, % of control.
Setting [8] is: COS-1, compound 3 µM, luciferase reporter activity, spread in separate STDEV column.
Setting [9] is: COS-1, compound 10 µM, luciferase reporter activity, spread in separate STDEV column.
The mark [10] stands for this setting: 3 µM compound, GATA4–NKX2-5 transcriptional synergy reporter, COS-1 cells.
The mark [11] stands for this setting: 3 µM compound, NKX2-5 luciferase reporter, COS-1 cells.
[12] abbreviates: 3 µM compound, GATA4 luciferase reporter, COS-1 cells.
Setting [13] is: 10 µM compound, GATA4–NKX2-5 transcriptional synergy reporter, COS-1 cells.
Where [14] appears, read: 10 µM compound, GATA4 luciferase reporter, COS-1 cells.

Each structure is given as a SMILES string. Like-named read-outs stand apart in the source and are kept apart here.

T2 sequence (P42582 whole entry): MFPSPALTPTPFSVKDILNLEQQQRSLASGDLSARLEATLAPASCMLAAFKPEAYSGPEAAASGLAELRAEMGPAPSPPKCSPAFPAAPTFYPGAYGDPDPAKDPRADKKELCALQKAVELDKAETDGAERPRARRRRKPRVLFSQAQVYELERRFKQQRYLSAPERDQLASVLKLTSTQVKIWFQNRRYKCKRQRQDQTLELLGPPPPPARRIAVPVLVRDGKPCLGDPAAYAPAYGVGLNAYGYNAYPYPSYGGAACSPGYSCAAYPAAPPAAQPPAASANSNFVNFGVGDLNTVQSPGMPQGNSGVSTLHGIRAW
T1 sequence (Q08369 whole entry): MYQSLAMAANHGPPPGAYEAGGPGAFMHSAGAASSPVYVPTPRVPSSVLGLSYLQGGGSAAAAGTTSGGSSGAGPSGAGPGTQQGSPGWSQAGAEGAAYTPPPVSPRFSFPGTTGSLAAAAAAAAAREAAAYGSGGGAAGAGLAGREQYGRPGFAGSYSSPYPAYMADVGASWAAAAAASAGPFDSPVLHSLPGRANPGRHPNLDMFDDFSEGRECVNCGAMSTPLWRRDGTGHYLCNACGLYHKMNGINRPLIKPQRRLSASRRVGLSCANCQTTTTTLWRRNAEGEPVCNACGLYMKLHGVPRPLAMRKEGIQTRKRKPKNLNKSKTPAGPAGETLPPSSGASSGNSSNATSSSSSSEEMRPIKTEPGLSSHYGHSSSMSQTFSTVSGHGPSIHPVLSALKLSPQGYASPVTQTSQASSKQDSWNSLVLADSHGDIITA
T1 sequence (P42582 whole entry): as the sequence (P42582 whole entry) above
T3 sequence (Q08369 whole entry): as the sequence (Q08369 whole entry) above

`Cc1onc(-c2ccccc2)c1C(=O)Nc1ccc(-c2ccccc2)cc1` [Compound 4f]: the activity at 3 µM in series [1] (setting [6]) worked out at 72.7%; in series [2] (setting [6]) it was 91%; in series [3] (setting [6]) it was 102%. Further, the activity at 10 µM in series [1] (setting [7]) was 112%; in series [3] (setting [7]) it was 114%.
Take `Cc1onc(-c2ccccc2)c1C(=O)Nc1nc(C(C)(C)C)cs1` [Compound 4k, N-[4-(tert-Butyl)thiazol-2-yl]-5-methyl-3-phenylisoxazole-4-carboxamide]: the activity at 3 µM in series [1] (setting [8]) came out at 117%; in series [2] (setting [8]), 97.7%; in series [3] (setting [8]), 109%. In addition, the activity at 10 µM worked out at 115% in series [1] (setting [9]) and 114% in series [3] (setting [9]).
As for `Cc1onc(-c2ccccc2)c1C(=O)Nc1ccc(C(=O)OCCCC#N)cc1` [Compound 10b], the results for the activity at 3 µM in series [1] (setting [8]), in series [2] (setting [8]) and in series [3] (setting [8]) were 93%, 105% and 103%, respectively. In series [3] (setting [9]), the activity at 10 µM worked out at 114%.
For the compound `Cc1onc(-c2ccccc2)c1C(=O)Nc1ccc(C(=O)OCCCCC#N)cc1` [Compound 10c], the activity at 3 µM amounted to 101% in series [1] (setting [8]), 102% in series [2] (setting [8]) and 109% in series [3] (setting [8]). Moreover, the activity at 10 µM in series [2] (setting [9]) was found to be 147%; in series [3] (setting [9]), 102%.
Regarding `CCN(CC)c1ccc(N(C)C(=O)c2c(-c3ccccc3)noc2C)cc1` [Compound 25a], the activity at 3 µM in series [1] (setting [6]) amounted to 78.1%. Also, the activity at 10 µM in series [2] (setting [7]) stood at 101%.
As for `CCC(=O)c1ccc(OCc2c(-c3ccccc3)noc2C)cc1` [Compound 34a, 1-[4-[(5-Methyl-3-phenylisoxazol-4-yl)methoxy]phenyl]propan-1-one], the figures for the activity at 3 µM in series [1] (setting [6]), in series [2] (setting [6]) and in series [3] (setting [6]) were 90.9%, 111% and 106%, respectively.
`Cc1onc(-c2ccccc2)c1COc1ccc(C(=O)OCCCC#N)cc1` [Compound 35b, 3-Cyanopropyl 4-[(5-Methyl-3-phenylisoxazol-4-yl)methoxy]benzoate]: the activity at 3 µM in series [1] (setting [10]) amounted to 85.5%; in series [2] (setting [11]), 82.5%; in series [3] (setting [12]), 73.9%.
Turning to `CCc1noc(C)c1C(=O)Nc1ccc(N(CC)CC)cc1` [Compound 39b], the activity at 3 µM in series [1] (setting [10]) was 97.5%; in series [2] (setting [11]), 124%; in series [3] (setting [12]), 120%. The activity at 10 µM in series [1] (setting [13]) was 104%; in series [2] (10 µM compound, NKX2-5 luciferase reporter, COS-1 cells), 164%; in series [3] (setting [14]), 143%.
Take `CCN(CC)c1ccc(NC(=O)c2c(-c3cccc([N+](=O)[O-])c3)noc2C)cc1` [Compound 39g]: in series [1] (COS-1, 3 µM, luciferase reporter activity relative to control), the activity at 3 µM came out at 93.4%. For the same compound, in the series on COS-1 cells [4] (1 µM), the LDH.1µM is 1.8. This compound also displayed an LDH.3µM in the series with COS-1 cells [4] (3 µM) of 1.19. This compound also had an LDH.10µM in the series with COS-1 cells [4] (10 µM) of -0.41. The compound also yielded an LDH.30µM with COS-1 cells [4] (30 µM) of -0.68. In the series with COS-1 cells [5] (1 µM, cell viability), this compound registered an MTT.1µM of 105.86. In addition, in the series on COS-1 cells [5] (3 µM, cell viability), the MTT.3µM worked out at 108.44. Also, in the series with COS-1 cells [5] (10 µM, cell viability), the MTT.10µM is listed as 106.4. For the same compound, the MTT.30µM with COS-1 cells [5] (30 µM, cell viability) is on record as 104.14. The “toxicity class in the MTT assay” value with COS-1 cells [5] (24-h exposure, classified at 10 μM) is “nontoxic (nontoxic compounds (cell viability >90%))”.
Regarding `CCN(CC)c1ccc(NC(=O)c2cn(C)nc2-c2cc(C)on2)cc1` [Compound 47f], the activity at 3 µM turned out to be 110% in series [1] (setting [8]) and 108% in series [2] (setting [8]).
Take `CCN(CC)c1ccc(NC(=O)c2cn(C)cc2-c2cc(C)on2)cc1` [Compound 47m]: the activity at 3 µM in series [1] (setting [8]) and in series [2] (setting [8]) was 116% throughout. Moreover, the activity at 10 µM in series [2] (setting [9]) is 114%.
`CCN(CC)c1ccc(NC(=O)c2c(-n3cccc3)sc(C)c2C)cc1` [Compound 56]: the figures for the activity at 3 µM in series [1] (setting [10]) and in series [2] (setting [11]) were 93.8% and 102%, respectively.
In the case of `Cc1cc(-c2onc(C)c2C(=O)Nc2ccc3oc(-c4ccccc4)cc(=O)c3c2)no1` [Compound 73], the results for the activity at 3 µM in series [1] (setting [10]) and in series [3] (setting [12]) were 107% and 127%, respectively. The activity at 10 µM in series [1] (setting [13]) was found to be 114%; in series [3] (setting [14]), 123%.
